Test results as given in patent US8420777B2, “Compounds that inhibit Hsp90 protein-protein interactions with IAP proteins” (University of Massachusetts, priority 2004, dated 2013).

How the values were obtained:
[1] = molecular target: T1, N-terminus of Hsp90 (Homo sapiens, UniProt P07900, S63T); assay: ELISA of immobilized peptide with Hsp90 fragments; type: binding; details: compared to P33 peptide
T1 construct: GST (N); made in house; host or cells: E. coli
Method: ELISA experiments were performed by immobilizing recombinant Survivin (r-Survivin) ([…]) or recombinant Hsp90 (r-Hsp90) (10 μg/ml) on plastic microtiter wells (Immulon™-2, Dynatech Laboratories, Chantilly, Va.) using bicarbonate buffer, pH 9.5 (100 μl/well) for 18 hours at 4° C. Bound protein was blocked with 3% gelatin for 1 hour at 37° C., rinsed with washing buffer (TBS pH 7.4, 0.1% Tween™, 0.1% BSA) and incubated for 1 hour at 37° C. with different concentrations of a test protein to determine if the test protein bound the immobilized protein.
Nucleotide sequences encoding full length Hsp90α (SEQ ID NO:21; amino acids 1-732) or three fragments: N-Hsp90 (amino acids 1-272 of SEQ ID NO:21), M-Hsp90, (amino acids 273-617 of SEQ ID NO:21), and C-Hsp90 (amino acids 629-732 of SEQ ID NO:21) were cloned by PCR in pGex-4T3 (Pharmacia Biotech.) and pFLAG-CMV 6c (Sigma) using the BamHI cloning sites. GST fusions of full length Hsp90, or individual Hsp90 fragments were expressed in E. coli and bound to glutathione beads (Sigma). Purified recombinant Survivin devoid of the GST frame was obtained as described in Example 2.
FIGS. 24A and 24B identify the location of P31 peptide's binding site as the N-terminus domain of Hsp90. […] After washing, binding of the individual Hsp90 fragments to the immobilized peptides was detected with an antibody to Hsp90. […]

[2] = system: HFF, HGF, WS-1 normal cells; assay: MTT colorimetric viability assay, normal cell types; type: cell-based, human; details: 24 hours
Method: FIGS. 22A and 22B compares the effect of P31 (SEQ ID NO:19) or P33 (SEQ ID NO:25) on apoptosis of tumor cell lines (FIG. 22A) and normal cell lines (FIG. 22B). The following tumor cell lines DU145 (prostate cancer, circles), PC3 (prostate cancer, triangles), or HeLa (cervical carcinoma, squares) were treated with the indicated increasing concentrations of P31 peptide (solid symbols) or control P33 peptide (open symbols), harvested after 24 hours, and analyzed for cell viability using an MTT colorimetric assay. For normal cell types (right panel), HFF (human foreskin fibroblasts, squares), HGF (human fibroblasts, triangles) or WS-1 (human epithelial cells, circles) were treated with P31 (solid symbols) or control scrambled peptide P33, harvested after 24 hours and analyzed for overall cell viability by MTT colorimetric assay. All cell lines were from ATCC.

[3] = system: breast carcinoma MCF-7 cells; assay: Multiparametric flow cytometry of caspase activity and membrane integrity; type: cell-based; details: MCF-7 (wild type p53), 24 hours
Method: (§1) For multiparametric analysis of caspase-dependent cell death and loss of plasma membrane integrity, HeLa, MCF-7, or genetically engineered HCT116 cells (obtained from ATCC) were loaded with increasing concentrations of cell permeable control scrambled peptide or the Survivin peptide, harvested after culturing for 24 hours at 37° C., and analyzed for cell viability (propidium iodide, red channel) and active caspase-3 activity (CaspaTag™ from Intergen, Purchase, N.Y., green channel) by flow cytometry.
Experiments were performed as in Example 13, except that breast carcinoma MCF-7 cells (wild type p53) were analyzed by multiparametric flow cytometry of induction of caspase activity and loss of cell membrane integrity after intracellular loading with cell permeable Control (SEQ ID NO:25) or Survivin (SEQ ID NO:19) cell permeable peptide.

[4] = molecular target: T2, recombinant Hsp90 (Homo sapiens, UniProt P07900, S63T); assay: ELISA binding to recombinant Hsp90
T2 construct: GST-Hsp90 (amino acids 1-732); GST (N); made in house; host or cells: E. coli
Description: FIG. 31 is a graph depicting Hsp90 binding by Survivin peptides, measured by ELISA. Data are the mean±S.D. of two independent experiments.

[5] = system: HL-60 cells; assay: Cell killing by trypan blue exclusion; type: cell-based
Method: The expression and function of the survivin-Hsp90 pathway in acute myelogenous leukemia (AML) cell lines was analyzed. Survivin was abundantly expressed in four AML cell lines, U937, K-562, THP-1 and HL-60, by Western blotting (FIG. 29A).

[6] = system: HCT116 colorectal cancer cells (p53+/+ or p53-/-); assay: Multiparametric flow cytometry of caspase activity and membrane integrity; type: cell-based; set-up: dose or concentration left out as unconfirmed; details: 24 hours, p53+/+ versus p53-/-
Method: as §1
In these experiments, HCT116 colorectal cancer cells carrying wild type p53 (p53^+/+) or homozygously inactivated p53 (p53^−/−) (Bunz et al., Science, 282:1497-1501 (1998))) were incubated with […] of cell permeable Control (SEQ ID NO:25) or Survivin (SEQ ID NO:19) cell permeable peptide, harvested after 24 hours and analyzed by multiparametric flow cytometry of induction of caspase activity and loss of cell membrane integrity.

[7] = system: HeLa cells; assay: Annexin V labeling and propidium iodide multiparametric flow cytometry; type: cell-based, Human; details: increasing concentrations, eight hour incubation, 37° C.
Method: HeLa cell cultures were treated with the indicated increasing concentrations of P31 (Survivin) or P33 (Control; SEQ ID NO:25) peptides, harvested after an eight hour incubation at 37° C., and analyzed for multiparametric flow cytometry of Annexin V labeling (X-axis, a marker of apoptosis) and propidium iodide staining (Y-axis, a marker of cell death).

[8] = system: breast carcinoma MCF-7 cells; assay: Soft agar colony formation (anchorage-independent growth); type: cell-based; details: 75 or 150 μm in growth media, relative to Control scrambled peptide
Method: For soft agar colony formation, 2×10^4 adapted breast carcinoma MCF-7 cells were suspended in 1.5 ml of DMEM supplemented with 10% FBS and 0.35% bactoagar (Becton Dickinson, Sparks, Md.) in 36 mm tissue culture plates containing 1.5 ml of 0.75% agarose in growth medium at the bottom layer. The plates were incubated at 37° C. in a 5% CO2 incubator for 2-5 weeks. The colonies were stained with 0.005% crystal violet (Sigma) and counted using a dissecting microscope under high power field.
The two upper plates shown in FIG. 19 had no visible cell colonies.

## RQIKIWFQNRRMKWKKKHSSGCAFL (Synthetically generated peptide) [P31]
[1]
  binding to the N-terminus of Hsp90 (OD405): bound specifically
[2]
  cell death in normal cell types (MTT): did not induce cell death in any of the three normal cell types
[3]
  caspase-dependent apoptosis: induces apoptosis
[4]
  binding to recombinant Hsp90 in vitro: comparably bound recombinant Hsp90
[5]
  cell killing (trypan blue exclusion): dose-dependent and complete cell killing
[6]
  accumulation of cells with high caspase activity and loss of plasma membrane integrity: indistinguishable between p53^+/+ and p53^−/− HCT116 cells
[7]
  induction of apoptosis (Annexin V / propidium iodide): induced apoptosis in a dose-dependent manner
[8]
  anchorage-independent cell growth and survival: completely inhibited
